{"source": "paper PMC4700456", "about": "“Receptor for detection of a Type II sex pheromone in the winter moth Operophtera brumata” (Scientific Reports, 2016)", "biological_target": "T1, ObruOR1 (co-expressed with Obru\\Orco) (Operophtera brumata, UniProt A0A140YWR3)", "T1 construct": "full-length, ObruOR1 430 aa, Obru\\Orco 472 aa; pCS2+ vector, cRNAs co-injected in Xenopus laevis oocytes; with Odorant receptor co-receptor", "T1 sequence (A0A140YWR3 1-430)": "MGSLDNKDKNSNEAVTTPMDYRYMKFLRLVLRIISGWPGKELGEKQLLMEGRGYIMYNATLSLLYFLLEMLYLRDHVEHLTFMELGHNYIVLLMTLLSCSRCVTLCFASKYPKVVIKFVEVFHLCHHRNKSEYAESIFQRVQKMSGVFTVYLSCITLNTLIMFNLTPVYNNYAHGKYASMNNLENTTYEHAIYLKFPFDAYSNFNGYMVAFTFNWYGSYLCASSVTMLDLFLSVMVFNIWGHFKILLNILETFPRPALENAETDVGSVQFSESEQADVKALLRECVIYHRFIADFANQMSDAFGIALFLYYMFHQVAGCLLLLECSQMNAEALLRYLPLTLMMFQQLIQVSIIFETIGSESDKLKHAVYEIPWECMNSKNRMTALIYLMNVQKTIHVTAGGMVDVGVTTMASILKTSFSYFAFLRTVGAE", "T1 sequence (A0A140YWR4 1-472 partner)": "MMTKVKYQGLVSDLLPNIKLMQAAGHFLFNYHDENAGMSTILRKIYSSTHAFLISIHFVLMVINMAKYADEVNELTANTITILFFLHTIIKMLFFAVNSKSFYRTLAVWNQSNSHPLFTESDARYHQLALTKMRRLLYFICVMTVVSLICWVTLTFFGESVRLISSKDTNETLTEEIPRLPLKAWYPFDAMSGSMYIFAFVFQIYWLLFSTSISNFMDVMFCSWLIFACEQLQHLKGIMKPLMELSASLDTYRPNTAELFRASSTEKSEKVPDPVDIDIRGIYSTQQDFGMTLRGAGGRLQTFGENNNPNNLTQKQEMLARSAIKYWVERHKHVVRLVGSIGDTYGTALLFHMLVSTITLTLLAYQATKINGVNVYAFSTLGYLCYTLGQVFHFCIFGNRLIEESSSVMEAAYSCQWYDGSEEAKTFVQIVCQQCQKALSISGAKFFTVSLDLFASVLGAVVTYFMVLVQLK", "experiment": "two-electrode voltage clamp, Xenopus oocytes", "type": "cell-based", "conditions": "agonist, holding potential -80 mV, Ringer's buffer, dose-response", "data": [{"molecule": "C=C/C=C\\C/C=C\\C/C=C\\CCCCCCCCC", "note": "[1,3Z,6Z,9Z-19:H, (3Z,6Z,9Z)-1,3,6,9-nonadecatetraene]", "values": [{"measurement": "threshold dose", "result": 10, "unit": "nM"}]}]}
